According to paper PMC9457773 (Molecules, 2022):
Like-named read-outs stand apart in the source and are kept apart here.

Key:
[1] = rat; for Stability, Bench-Top: measured concentration: 4 h; for Stability, Autosampler: measured concentration: 12 h; for Stability, Long-Term: measured concentration: 30 days
Description: (§1) A 5 μL aliquot of the mixed working solution was added to 45 μL of blank plasma to prepare the calibration standards.
(§2) The selectivity of the method was assessed by comparing the chromatograms of six independent blank rat plasma samples, simulated plasma samples in which blank rat plasma samples were spiked with working solution at a lower limit of quantitation (LLOQ) and IS, and actual plasma samples collected from rats. […] Different concentrations of the QC and LLOQ samples, with six replicates at each concentration, were used to evaluate precision and accuracy, and inter-batch precision and accuracy were evaluated by measurements for three consecutive days. The precision was expressed as the coefficient of variation (CV%), and the accuracy was expressed as the relative error (RE%). The extraction recovery was evaluated by comparing the peak areas of blank plasma spiked with working solution pre-extraction and blank plasma spiked with working solution post-extraction. The matrix effect was evaluated by the ratio of the peak area of the analyte in the plasma to the peak area of the analyte in solution at three concentrations of the QC samples. […] Three concentrations of the QC samples, with six replicates at each concentration level, were used to examine the stability of the three analytes at room temperature for 4 h, in the autosampler for 12 h, at −80 °C for 30 days, and freeze–thaw three times.

[2] = literature statement in words, Introduction, cited from earlier work
[3] = literature value, Introduction, cited from earlier work
[4] = literature value, Introduction; cited from earlier work
[5] = Pharmacokinetic and drug–drug interaction study in rats (plasma, UPLC–MS/MS); details: for AUC(0-inf): AUCinf; for AUC(0-t): AUClast; for CL/F: CLz/F; for Tmax: median (range); for Vd/F: Vz/F; for half-life: t1/2z
Description: First, 50 μL of the plasma sample was added to 5 μL of the mixture IS working solution and 500 μL of the extraction reagent (methyl tert-butyl ether and ethyl acetate, 1:4) vortex-mixed for 3 min and then centrifuged at 12,000 rpm for 10 min. Next, 400 μL of supernatant was transferred into a new centrifuge tube, which was blown dry under a stream of nitrogen, and the residue was re-solubilized with 150 μL of 50% acetonitrile–water.
The concentrations of analytes were determined by UPLC–MS/MS, which consisted of an LC-30A ultra-performance liquid chromatography (Shimadzu, Japan), and Sciex Triple Quad 5500 tandem triple quadrupole mass spectrometer (Applied Biosystems Sciex, Framingham, MA, USA). The XSelect HSS T3 column (2.1 mm × 100 mm, 2.5 μm, Waters, Milford, MA, USA) was used for chromatographic separation. Phase A (0.1% formic acid in ultrapure water containing 5 mM ammonium acetate) and phase B (acetonitrile) were used as the mobile phases for gradient elution at 0.35 mL/min.
The experimental animals were randomly divided into five groups (n = 6 per group). […] Approximately 0.25 mL of blood was collected from the orbital venous plexus of rats in pre-heparinized centrifuge tubes. […] Blood samples were centrifuged at 3500 rpm for 10 min, and the plasma was transferred to new centrifuge tubes and then stored at −80 °C.
The Cmax and Tmax (time to maximum plasma concentration) were read directly from the drug concentrations. The other pharmacokinetic parameters were analyzed using a non-compartmental analysis with Phoenix WinNonLin 8.2 software (Pharsight, Mountain View, Certara, CA, USA).

[6] = Stability of QC samples in rat plasma under various storage conditions; details: for Stability, Autosampler: measured concentration / Stability, Freeze-Thaw: measured concentration / Stability, Bench-Top: measured concentration / Stability, Long-Term: measured concentration: rat plasma QC, n = 6; for Stability, Autosampler: measured concentration: autosampler for 12 h; for Stability, Freeze-Thaw: measured concentration: freeze–thaw three times; for Stability, Bench-Top: measured concentration: room temperature for 4 h; for Stability, Long-Term: measured concentration: −80 °C for 30 days
Description: as §1, §2

[7] = Sprague Dawley, rat, plasma, po, 1.2 mg/kg, lenvatinib in rat plasma, lenvatinib 1.2 mg/kg oral co-administered with canagliflozin 10 mg/kg (VLEN+CA), n = 6, mean ± SD
[8] = Sprague Dawley, rat, plasma, po, 1.2 mg/kg, lenvatinib in rat plasma, oral single dose lenvatinib 1.2 mg/kg alone (IILEN), n = 6, mean ± SD
[9] = lenvatinib (1.2 mg/kg) in the presence of canagliflozin (10 mg/kg) compared to lenvatinib alone, rats
[10] = lenvatinib in rat plasma, oral single dose lenvatinib 1.2 mg/kg alone (IILEN), n = 6, mean ± SD
[11] = Sprague Dawley, rat, plasma, po, 100 mg/kg, sorafenib in rat plasma, oral single dose sorafenib 100 mg/kg alone (ISOR), n = 6, mean ± SD
[12] = Sprague Dawley, rat, plasma, po, 100 mg/kg, sorafenib in rat plasma, sorafenib 100 mg/kg oral co-administered with canagliflozin 10 mg/kg (IVSOR+CA), n = 6, mean ± SD

## COc1cc2nccc(Oc3ccc(NC(=O)NC4CC4)c(Cl)c3)c2cc1C(N)=O [lenvatinib, Lenvatinib]
[1]; 0.5 ng/mL
  Stability, Freeze-Thaw: measured concentration: 0.53 ± 0.03 ng/mL
  Stability, Bench-Top: measured concentration: 0.54 ± 0.03 ng/mL
  Stability, Autosampler: measured concentration: 0.53 ± 0.04 ng/mL
  Stability, Long-Term: measured concentration: 0.47 ± 0.03 ng/mL
[1]; 150 ng/mL
  Stability, Freeze-Thaw: measured concentration: 157.33 ± 11.02 ng/mL
  Stability, Bench-Top: measured concentration: 156.67 ± 7.42 ng/mL
  Stability, Autosampler: measured concentration: 162.67 ± 7.42 ng/mL
  Stability, Long-Term: measured concentration: 157.00 ± 12.63 ng/mL
[1]; 800 ng/mL
  Stability, Freeze-Thaw: measured concentration: 725.83 ± 18.06 ng/mL
  Stability, Bench-Top: measured concentration: 794.00 ± 18.24 ng/mL
  Stability, Autosampler: measured concentration: 819.50 ± 30.36 ng/mL
  Stability, Long-Term: measured concentration: 714.00 ± 24.44 ng/mL
[2]
  solubility: low
[3]
  half-life: 28 h
[4]
  plasma protein binding rate: approximately 98%
[5]; [7]
  AUC(0-inf): 7280 ± 1170 ng·h/mL
  AUC(0-t): 7280 ± 1170 ng·h/mL
  CL/F: 2.83 mL/min/kg
  Cmax: 985 ± 162 ng/mL
  Vd/F: 1.56 ± 0.29 L/kg
  half-life: 6.49 ± 1.04 h
[5]; [8]
  CL/F: 3.67 mL/min/kg
  Cmax: 721 ± 144 ng/mL
  Vd/F: 3.31 ± 1.51 L/kg
  half-life: 10.5 ± 4.53 h
[5]; Sprague Dawley, rat, plasma, po, 1.2 mg/kg, Tmax, lenvatinib in rat plasma, oral single dose lenvatinib 1.2 mg/kg alone (IILEN), n = 6
  Tmax: 1.75 h
[5]; [9]
  decrease of CLz/F: 22.7%
  decrease of Vz/F: 52.9%
  decrease of t1/2: 38%
  increase of AUCinf: 28.9%
  increase of AUClast: 28.9%
  increase of Cmax: 36.2%
[5]; lenvatinib in rat plasma, lenvatinib 1.2 mg/kg oral co-administered with canagliflozin 10 mg/kg (VLEN+CA), n = 6
  Tmax: 1.50 (0.88–1.63) h
[5]; [10]
  AUCinf: 5653 ± 1299 ng·h/mL
  AUClast: 5640 ± 1292 ng·h/mL
[5]; lenvatinib in the presence of canagliflozin, rats, abstract, AUC not specified as last or inf
  increase of AUC: 28.9%

## CNC(=O)c1cc(Oc2ccc(NC(=O)Nc3ccc(Cl)c(C(F)(F)F)c3)cc2)ccn1 [sorafenib, Sorafenib]
[2]
  solubility: poor
[2]; membrane permeability
  permeability: high
[3]; after oral administration
  time to peak blood concentration: approximately 3 h
[4]
  plasma protein binding rate: 99.5%
[5]; [11]
  AUC(0-inf): 40300 ng·h/mL
  AUC(0-t): 40000 ng·h/mL
  CL/F: 47.7 mL/min/kg
  Cmax: 1920 ± 298 ng/mL
  Vd/F: 49 ± 18.8 L/kg
  half-life: 12.3 ± 2.23 h
[5]; [12]
  AUC(0-inf): 41300 ng·h/mL
  AUC(0-t): 41200 ng·h/mL
  CL/F: 42 mL/min/kg
  Cmax: 2200 ± 535 ng/mL
  Vd/F: 38.3 ± 10.1 L/kg
[5]; sorafenib in rat plasma, oral single dose sorafenib 100 mg/kg alone (ISOR), n = 6
  Tmax: 8.00 (7.00–8.00) h
[5]; sorafenib in rat plasma, sorafenib 100 mg/kg oral co-administered with canagliflozin 10 mg/kg (IVSOR+CA), n = 6, mean ± SD
  t1/2z: 10.47 ± 0.94 h
[6]; rat plasma QC samples, room temperature 4 h, autosampler 12 h, −80 °C 30 days, three freeze–thaw cycles
  stability during the different processing and storage conditions: stable
[6]; nominal 10 ng/mL
  Stability, Autosampler: measured concentration: 11.13 ± 0.24 ng/mL
  Stability, Freeze-Thaw: measured concentration: 10.55 ± 0.43 ng/mL
  Stability, Bench-Top: measured concentration: 10.97 ± 0.29 ng/mL
  Stability, Long-Term: measured concentration: 10.51 ± 0.43 ng/mL
[6]; nominal 1500 ng/mL
  Stability, Autosampler: measured concentration: 1540.00 ± 95.71 ng/mL
  Stability, Freeze-Thaw: measured concentration: 1531.67 ± 117.88 ng/mL
  Stability, Bench-Top: measured concentration: 1551.67 ± 84.00 ng/mL
  Stability, Long-Term: measured concentration: 1565.00 ± 123.25 ng/mL
[6]; nominal 3750 ng/mL
  Stability, Autosampler: measured concentration: 3961.67 ± 102.26 ng/mL
  Stability, Freeze-Thaw: measured concentration: 3698.33 ± 72.78 ng/mL
  Stability, Bench-Top: measured concentration: 3948.33 ± 99.88 ng/mL
  Stability, Long-Term: measured concentration: 3583.33 ± 67.43 ng/mL
